The values below come from patent US20250154686A1, “COMPOUND LIBRARY” (CHUGAI SEIYAKU KABUSHIKI KAISHA, priority 2021, published 2025).

In this assay the target is T1, Bcl-2 protein (Recombinant Human Bcl-2 Protein) (Homo sapiens, UniProt P10415).
T1 construct: purchased Novus Biologicals NBP2-34889
The assay is described as follows: AS-MS evaluation of binding of the Example 4 mixture library (1200 compounds/well) to Bcl-2, ASMS ratio (%). In a few lines:
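Affinity-selection MS: 1200 cpds/well, 20 nM each; hBcl-2 20 μM; 25 mM Tris pH 7.4/150 mM NaCl/0.025% Tween-20/1 mM DTT; 1 h, 23 °C, dark; P-2 size-exclusion spin, MeCN:MeOH 1:1 extraction; RP LC/MS; ratio vs no-protein STD and SEC blank.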

Where [1] appears, read: AS-MS, Example 4 mixture library, Bcl-2, replicate n = 1.
Setting [2] is: AS-MS, Example 4 mixture library, Bcl-2, replicate n = 2.
Where [3] appears, read: replicate n = 1, mixture library, value belongs to the MS peak assigned to the compound.
Setting [4] is: replicate n = 2, mixture library, value belongs to the MS peak assigned to the compound.
The mark [5] stands for this setting: AS-MS, mixture of 1200 compounds/well, Bcl-2 protein, replicate n = 1.
Where [6] appears, read: AS-MS, mixture of 1200 compounds/well, Bcl-2 protein, replicate n = 2.

T1 sequence (P10415 whole entry): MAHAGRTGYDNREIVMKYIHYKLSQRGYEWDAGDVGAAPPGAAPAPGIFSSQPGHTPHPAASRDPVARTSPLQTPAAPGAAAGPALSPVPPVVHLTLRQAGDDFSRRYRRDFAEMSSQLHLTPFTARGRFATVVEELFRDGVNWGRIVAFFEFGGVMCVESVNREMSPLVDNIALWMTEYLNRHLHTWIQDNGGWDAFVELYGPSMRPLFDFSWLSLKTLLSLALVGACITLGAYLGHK

For the compound `CCOc1cncc(C#Cc2cncc(C(=O)N3CCN(c4ccc(C(=O)NS(=O)(=O)c5ccc(NCCSc6ccccc6)c(C(F)(F)F)c5)cc4)CC3)c2)c1` [Compound B2R032-01, 4-[4-[5-[2-(5-Ethoxypyridin-3-yl)ethynyl]pyridine-3-carbonyl]piperazin-1-yl]-N-[4-(2-phenylsulfanylethylamino)-3-(trifluoromethyl)phenyl]sulfonylbenzamide], the “ASMS ratio (%) n = 1” value under setting [1] is on record as 6.4%. Further, the “ASMS ratio (%) n = 2” value under setting [2] is listed as 0.0%.

With `CCOc1cccc(-c2cc(CN3CCN(c4ccc(C(=O)NS(=O)(=O)c5ccc(NCCSc6ccccc6)c(C(F)(F)F)c5)cc4)CC3)cc(OC(F)(F)F)c2)c1` [Compound B2R063-01, 4-[4-[[3-(3-Ethoxyphenyl)-5-(trifluoromethoxy)phenyl]methyl]piperazin-1-yl]-N-[4-(2-phenylsulfanylethylamino)-3-(trifluoromethyl)phenyl]sulfonylbenzamide], the “ASMS ratio (%) n = 1” value under setting [1] amounted to 8.2%. The “ASMS ratio (%) n = 2” value under setting [2] amounted to 4.6%.

With `CCOc1cncc(-c2cc(CN3CCN(c4ccc(C(=O)NS(C)(=O)=O)cc4)CC3)cc(OC(C)C)c2)c1` [Compound B2I058-01, 4-[4-[[3-(5-Ethoxypyridin-3-yl)-5-propan-2-yloxyphenyl]methyl]piperazin-1-yl]-N-methylsulfonylbenzamide], the “ASMS ratio (%) n = 1” value under setting [3] was 0.0%. In addition, the “ASMS ratio (%) n = 2” value under setting [4] is recorded as 0.0%.

As for `CCOc1cncc(-c2ccc(CN3CCN(c4ccc(C(=O)NS(C)(=O)=O)nn4)CC3)c(CC)c2)c1` [Compound B2I076-01, 6-[4-[[4-(5-Ethoxypyridin-3-yl)-2-ethylphenyl]methyl]piperazin-1-yl]-N-methylsulfonylpyridazine-3-carboxamide], the “ASMS ratio (%) n = 1” value under setting [3] was 0.2%. For the same compound, the “ASMS ratio (%) n = 2” value under setting [4] is listed as −3.2%.

As for `CCOc1cccc(-c2ccc(CN3CCN(c4ccc(C(=O)NS(C)(=O)=O)cc4)CC3)c(OC)c2)c1` [Compound B2I053-01, 4-[4-[[4-(3-Ethoxyphenyl)-2-methoxyphenyl]methyl]piperazin-1-yl]-N-methylsulfonylbenzamide], the “ASMS ratio (%) n = 1” value under setting [3] amounted to 0.0%. The “ASMS ratio (%) n = 2” value under setting [4] was 0.0%.

Turning to `CCOc1cccc(C#Cc2ccccc2CN2CCN(c3ccc(C(=O)NS(=O)(=O)CCC(F)(F)F)cc3)CC2)c1` [Compound B2N069-01, 4-[4-[[2-[2-(3-Ethoxyphenyl)ethynyl]phenyl]methyl]piperazin-1-yl]-N-(3,3,3-trifluoropropylsulfonyl)benzamide], the “ASMS ratio (%) n = 1” value under setting [1] is on record as −1.8%. For the same compound, the “ASMS ratio (%) n = 2” value under setting [2] is listed as −1.5%.

`CCOc1cccc(-c2ccccc2CN2CCN(c3ccc(C(=O)NS(=O)(=O)c4ccc(NCCSc5ccccc5)c(C(F)(F)F)c4)nn3)CC2)c1` [Compound B2R071-01]: the “ASMS ratio (%) n = 1” value under setting [1] is 14.3%. Moreover, under setting [2], the “ASMS ratio (%) n = 2” value was −9.0%.

As for `CCOc1cccc(C#Cc2ccccc2CN2CCN(c3ccc(C(=O)NS(=O)(=O)C(C)(C)C)cc3)CC2)c1` [Compound B2L069-01, N-tert-Butylsulfonyl-4-[4-[[2-[2-(3-ethoxyphenyl)ethynyl]phenyl]methyl]piperazin-1-yl]benzamide], the “ASMS ratio (%) n = 1” value under setting [3] came to 0.0%. Moreover, under setting [4], the “ASMS ratio (%) n = 2” value is reported as 0.0%.

Take “4-[4-[[4-(5-Ethoxypyridin-3-yl)-2-ethylphenyl]methyl]piperazin-1-yl]-N-propylbenzamide [Compound B1M075-01]”: the “ASMS ratio (%) n = 1” value under setting [5] turned out to be 77.3%. The “ASMS ratio (%) n = 2” value under setting [6] was found to be 46.1%.

For `CCCNC(=O)c1ccc(N2CCN(Cc3cc(-c4cccc(OCC)c4)cc(C(F)(F)F)c3)CC2)nn1` [Compound B1M087-01], the “ASMS ratio (%) n = 1” value under setting [5] is listed as 3.8%. Moreover, the “ASMS ratio (%) n = 2” value under setting [6] worked out at 3.2%.

For the compound `CCOc1cncc(C#Cc2ccccc2CN2CCN(c3ccc(C(=O)NS(=O)(=O)C(C)(C)C)cc3)CC2)c1` [Compound B2L070-01], under setting [3], the “ASMS ratio (%) n = 1” value worked out at 4.9%. In addition, the “ASMS ratio (%) n = 2” value under setting [4] is on record as −4.2%.

As to `CCCNC(=O)c1ccc(N2CCN(C(=O)c3cc(C#Cc4cccc(OCC)c4)cc(C(F)(F)F)c3)CC2)nn1` [Compound B1M019-01], the “ASMS ratio (%) n = 1” value under setting [5] is given as 1.5%. Under setting [6], the “ASMS ratio (%) n = 2” value turned out to be 0.0%.

Consider `CCOc1cccc(-c2ccc(CN3CCN(c4ccc(C(=O)NS(=O)(=O)C(C)(C)C)nn4)CC3)c(CC)c2)c1` [Compound B2L075-01], for which, under setting [3], the “ASMS ratio (%) n = 1” value was 0.0%. Moreover, the “ASMS ratio (%) n = 2” value under setting [4] stood at 33.9%.

`CCOc1cccc(-c2ccc(CN3CCN(c4ccc(C(=O)NS(=O)(=O)C(C)(C)C)cc4)CC3)c(OC)c2)c1` [Compound B2L053-01]: the “ASMS ratio (%) n = 1” value under setting [3] stood at 0.0%. In addition, under setting [4], the “ASMS ratio (%) n = 2” value turned out to be 0.0%.

Turning to `CCOc1cncc(-c2cc(CN3CCN(c4ccc(C(=O)NS(=O)(=O)c5ccc(NCCSc6ccccc6)c(C(F)(F)F)c5)nn4)CC3)cc(C(F)(F)F)c2)c1` [Compound B2R088-01, 6-[4-[[3-(5-Ethoxypyridin-3-yl)-5-(trifluoromethyl)phenyl]methyl]piperazin-1-yl]-N-[4-(2-phenylsulfanylethylamino)-3-(trifluoromethyl)phenyl]sulfonylpyridazine-3-carboxamide], the “ASMS ratio (%) n = 1” value under setting [1] is 35.3%. Moreover, the “ASMS ratio (%) n = 2” value under setting [2] is 13.1%.

For the compound `CCCNC(=O)c1ccc(N2CCN(C(=O)c3ccc(-c4cncc(OCC)c4)c(C)c3)CC2)nn1` [Compound B1M004-01], under setting [5], the “ASMS ratio (%) n = 1” value was 0.0%. The “ASMS ratio (%) n = 2” value under setting [6] amounted to 0.0%.

With `CCOc1cccc(-c2cc(CN3CCN(c4ccc(C(=O)NS(=O)(=O)C(C)(C)C)nn4)CC3)cc(C(F)(F)F)c2)c1` [Compound B2L087-01, N-tert-Butylsulfonyl-6-[4-[[3-(3-ethoxyphenyl)-5-(trifluoromethyl)phenyl]methyl]piperazin-1-yl]pyridazine-3-carboxamide], the “ASMS ratio (%) n = 1” value under setting [1] worked out at 1.9%. Moreover, the “ASMS ratio (%) n = 2” value under setting [2] is −24.6%.

For `CCOc1cncc(-c2cc(CN3CCN(c4ccc(C(=O)NS(C)(=O)=O)nn4)CC3)cc(OCC)c2)c1` [Compound B2I082-01, 6-[4-[[3-Ethoxy-5-(5-ethoxypyridin-3-yl)phenyl]methyl]piperazin-1-yl]-N-methylsulfonylpyridazine-3-carboxamide], the “ASMS ratio (%) n = 1” value under setting [3] is reported as 0.0%. In addition, the “ASMS ratio (%) n = 2” value under setting [4] stood at 1.9%.

For `CCCNC(=O)c1ccc(N2CCN(Cc3cc(OCC)cc(-c4cncc(OCC)c4)c3)CC2)nn1` [Compound B1M012-01, 6-[4-[[3-Ethoxy-5-(5-ethoxypyridin-3-yl)phenyl]methyl]piperazin-1-yl]-N-propylpyridazine-3-carboxamide], the “ASMS ratio (%) n = 1” value under setting [5] was −3.5%. For the same compound, under setting [6], the “ASMS ratio (%) n = 2” value is reported as −2.3%.

Take `CCOc1cncc(-c2cc(OC)c(CN3CCN(c4ccc(C(=O)NS(C)(=O)=O)nn4)CC3)c(OC)c2)c1` [Compound B2I086-01, 6-[4-[[4-(5-Ethoxypyridin-3-yl)-2,6-dimethoxyphenyl]methyl]piperazin-1-yl]-N-methylsulfonylpyridazine-3-carboxamide]: the “ASMS ratio (%) n = 1” value under setting [3] is on record as 0.0%. Besides, the “ASMS ratio (%) n = 2” value under setting [4] amounted to 0.0%.

In the case of `CCOc1cccc(-c2cc(CN3CCN(c4ccc(C(=O)NS(=O)(=O)c5ccc(NCCSc6ccccc6)c(C(F)(F)F)c5)nn4)CC3)cc(OC(C)C)c2)c1` [Compound B2R083-01, 6-[4-[[3-(3-Ethoxyphenyl)-5-propan-2-yloxyphenyl]methyl]piperazin-1-yl]-N-[4-(2-phenylsulfanylethylamino)-3-(trifluoromethyl)phenyl]sulfonylpyridazine-3-carboxamide], the “ASMS ratio (%) n = 1” value under setting [1] came to 31.9%. For the same compound, under setting [2], the “ASMS ratio (%) n = 2” value is reported as −11.1%.

With `CCOc1cccc(-c2ccc(C(C)N3CCN(c4ccc(C(=O)NS(C)(=O)=O)cc4)CC3)c(F)c2)c1` (centres unmarked) [Compound B2I099-01, 4-[4-[1-[4-(3-Ethoxyphenyl)-2-fluorophenyl]ethyl]piperazin-1-yl]-N-methylsulfonylbenzamide], the “ASMS ratio (%) n = 2” value under setting [4] was found to be 0.0%.

On to `CCOc1cccc(-c2cc(OC)c(CN3CCN(c4ccc(C(=O)NS(=O)(=O)C(C)(C)C)nn4)CC3)c(OC)c2)c1` [Compound B2L085-01, N-tert-Butylsulfonyl-6-[4-[[4-(3-ethoxyphenyl)-2,6-dimethoxyphenyl]methyl]piperazin-1-yl]pyridazine-3-carboxamide], for which the “ASMS ratio (%) n = 1” value under setting [1] amounted to 0.0%. Further, the “ASMS ratio (%) n = 2” value under setting [2] worked out at 0.0%.

Regarding `CCCNC(=O)c1ccc(N2CCN(C(=O)c3cc(-c4cncc(OCC)c4)cs3)CC2)cc1` [Compound B1M024-01], the “ASMS ratio (%) n = 1” value under setting [5] is recorded as 0.0%. Further, the “ASMS ratio (%) n = 2” value under setting [6] was 0.0%.

For the compound `CCOc1cccc(C#Cc2cc(C(=O)N3CCN(c4ccc(C(=O)NS(=O)(=O)c5ccc(NCCSc6ccccc6)c(C(F)(F)F)c5)nn4)CC3)cc(C(F)(F)F)c2)c1` [Compound B2R019-01, 6-[4-[3-[2-(3-Ethoxyphenyl)ethynyl]-5-(trifluoromethyl)benzoyl]piperazin-1-yl]-N-[4-(2-phenylsulfanylethylamino)-3-(trifluoromethyl)phenyl]sulfonylpyridazine-3-carboxamide], the “ASMS ratio (%) n = 1” value under setting [1] was found to be 5.2%. Besides, the “ASMS ratio (%) n = 2” value under setting [2] came out at 14.0%.

Take `CCOc1cccc(-c2ccc(CN3CCN(c4ccc(C(=O)NS(=O)(=O)C(C)(C)C)nn4)CC3)c3ccccc23)c1` [Compound B2L091-01]: under setting [1], the “ASMS ratio (%) n = 1” value came out at 0.0%. Further, under setting [2], the “ASMS ratio (%) n = 2” value came to 0.0%.

Consider `CCOc1cncc(-c2cc(OC)c(CN3CCN(c4ccc(C(=O)NS(C)(=O)=O)cc4)CC3)c(OC)c2)c1` [Compound B2I060-01, 4-[4-[[4-(5-Ethoxypyridin-3-yl)-2,6-dimethoxyphenyl]methyl]piperazin-1-yl]-N-methylsulfonylbenzamide], for which, under setting [3], the “ASMS ratio (%) n = 1” value stood at 0.0%. In addition, the “ASMS ratio (%) n = 2” value under setting [4] worked out at 0.0%.
